In ChEMBL document CHEMBL1201862, “PubChem BioAssay data set” (2004) one finds EC50 and IC50 data, which are given here for 6 compounds.

SMILES strings stand for the structures. Calls of active or inactive are those of the source. For most assays here, no stated cut-off is given here; in the data, actives have a measured EC50 and inactives only a lower limit. A value given as a limit tells only on which side of the number the result lay.

Experiment [1] concerns BJ. Put plainly: BJ-TERT fibroblast viability loss – cell-based, RAS-independent, luminescence, dose response (AID 1933). The format is functional. The settings on record: Homo sapiens.
The subject of experiment [2] is BJ. Put plainly: cells. Type of experiment: functional, cell-based. The conditions noted are these: Homo sapiens.
Experiment [3] concerns the target Luciferin 4-monooxygenase (Photinus pyralis, UniProt P08659). Put plainly: inhibition of purified Photinus pyralis luciferase – biochemical, luminescence, dose response (AID 1891).
The nature of experiment [4]: Luminescence Cell-Based Dose Confirmation HTS to Identify Inhibitors of Platelet Dense Granule Release. [Related pubchem assays: 1663 (Primary HTS), 1678 (Summary of Project)]. The format is functional.
Experiment [5] deals with BJ. Put plainly: BJ-TERT-LT-ST fibroblast viability loss – cell-based, RAS-independent, luminescence, dose response (AID 1935).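 Further: BJ fibroblasts immortalized with TERT plus LT and ST oncogenes.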 The format is functional. The conditions noted are these: Homo sapiens.
Experiment [6] is described as follows: DRD fibroblast viability loss – cell-based, non-viral oncogenic, luminescence, dose response (AID 1934). The format is functional. The settings on record: Homo sapiens.
Experiment [7] relates to BJ. Nature of the experiment: growth inhibition of engineered Ras-driven BJ cells – cell-based, alamar blue fluorescence, cherrypicked samples, dose response (AID 2631).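 Further: confirmatory dose-response assay in RAS-dependent BJ fibroblasts engineered with TERT, LT and ST, with cytotoxicity read by fluorescence.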 Type of experiment: functional. The conditions noted are these: Homo sapiens. On the technique in general: Resazurin is reduced to fluorescent resorufin, in cell work by metabolically active cells.
For a further experiment, the target named is Melanocortin receptor 4 (Homo sapiens, UniProt P32245). Nature of the experiment: inhibitors of MC4R cAMP signaling – cell-based, TR-FRET, biased antagonists, dose response (AID 602298).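 Further: antagonist potency against agonist-stimulated cAMP production.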 The format is functional. On the technique in general: In TR-FRET formats the signal depends on donor and acceptor labels being close together.
Experiment [8] in a line: cAMP pathway inhibition in counterscreen cell line – TR-FRET cAMP detection, counter-screen for MC4R biased antagonist project, dose response (AID 602305).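 Further: U2OS cells stimulated with forskolin near its EC80 as the cAMP inducer; potency is for inhibition of forskolin-stimulated cAMP signaling.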 Type of experiment: functional, cell-based. In general terms: The purpose of a counterscreen is to sort out artefacts and off-target activity.
A further experiment addresses Phospholipase D1 (Homo sapiens, UniProt Q13393). Nature of the experiment: cellular phospholipase D1 inhibition IC50 – cell-based, dose response (AID 602151).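 Further: cellular PLD1 assay in Calu-1 cells stimulated with PMA.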 The format is functional.
The next experiment concerns the target Phospholipase D2 (Homo sapiens, UniProt O14939). Put plainly: cellular phospholipase D2 inhibition IC50 – cell-based, dose response (AID 602147).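 Further: cellular assay in HEK293 cells overexpressing GFP-tagged PLD2.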 The format is functional.
For experiment [9], the target named is Beta-2 adrenergic receptor (Homo sapiens, UniProt P07550). Put plainly: ADRB2 activation measured by internalization – cell-based, FAP fluorogen, flow cytometry, cherry pick 1, dose response (AID 588763). Type of experiment: functional.
Beta-2 adrenergic receptor, sequence (P07550 whole entry): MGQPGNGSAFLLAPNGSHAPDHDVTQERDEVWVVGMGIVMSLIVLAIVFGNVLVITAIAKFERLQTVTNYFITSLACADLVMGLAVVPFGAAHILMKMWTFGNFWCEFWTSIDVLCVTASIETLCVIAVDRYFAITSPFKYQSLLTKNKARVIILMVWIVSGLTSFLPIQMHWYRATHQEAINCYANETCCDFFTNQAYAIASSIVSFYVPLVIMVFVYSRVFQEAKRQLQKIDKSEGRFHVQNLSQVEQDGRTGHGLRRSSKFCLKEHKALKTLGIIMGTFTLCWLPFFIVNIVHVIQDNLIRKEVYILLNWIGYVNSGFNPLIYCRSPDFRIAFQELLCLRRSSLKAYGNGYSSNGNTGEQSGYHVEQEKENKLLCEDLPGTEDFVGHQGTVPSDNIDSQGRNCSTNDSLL

Phospholipase D1, sequence (Q13393 whole entry): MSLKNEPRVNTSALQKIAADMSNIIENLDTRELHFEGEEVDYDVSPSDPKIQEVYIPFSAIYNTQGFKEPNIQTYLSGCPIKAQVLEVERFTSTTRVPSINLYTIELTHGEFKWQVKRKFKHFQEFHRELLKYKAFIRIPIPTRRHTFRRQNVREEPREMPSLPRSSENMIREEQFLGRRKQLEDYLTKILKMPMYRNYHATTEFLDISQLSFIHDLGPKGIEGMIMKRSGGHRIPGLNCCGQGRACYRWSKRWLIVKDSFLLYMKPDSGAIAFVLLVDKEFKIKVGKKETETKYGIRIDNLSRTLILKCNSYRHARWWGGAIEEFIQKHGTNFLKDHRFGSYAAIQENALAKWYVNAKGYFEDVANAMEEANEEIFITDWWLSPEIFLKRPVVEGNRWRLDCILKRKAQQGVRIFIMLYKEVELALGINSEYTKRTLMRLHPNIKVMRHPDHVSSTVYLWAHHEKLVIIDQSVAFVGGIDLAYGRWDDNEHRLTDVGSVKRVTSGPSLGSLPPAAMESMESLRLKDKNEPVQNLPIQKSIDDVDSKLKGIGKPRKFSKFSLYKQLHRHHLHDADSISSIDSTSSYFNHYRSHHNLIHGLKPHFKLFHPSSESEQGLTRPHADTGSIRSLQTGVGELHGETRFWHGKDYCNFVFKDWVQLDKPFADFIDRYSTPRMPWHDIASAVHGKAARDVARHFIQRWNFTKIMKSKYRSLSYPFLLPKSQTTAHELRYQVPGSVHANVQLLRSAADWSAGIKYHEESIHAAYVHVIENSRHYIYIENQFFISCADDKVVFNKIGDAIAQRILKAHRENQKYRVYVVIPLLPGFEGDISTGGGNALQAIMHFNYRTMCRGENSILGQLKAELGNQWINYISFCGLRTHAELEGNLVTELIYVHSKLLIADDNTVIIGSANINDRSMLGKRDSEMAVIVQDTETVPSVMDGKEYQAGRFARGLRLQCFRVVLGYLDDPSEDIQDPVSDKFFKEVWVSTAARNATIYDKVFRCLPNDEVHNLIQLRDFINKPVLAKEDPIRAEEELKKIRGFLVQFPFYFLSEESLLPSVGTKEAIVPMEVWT
Phospholipase D2, sequence (O14939 whole entry): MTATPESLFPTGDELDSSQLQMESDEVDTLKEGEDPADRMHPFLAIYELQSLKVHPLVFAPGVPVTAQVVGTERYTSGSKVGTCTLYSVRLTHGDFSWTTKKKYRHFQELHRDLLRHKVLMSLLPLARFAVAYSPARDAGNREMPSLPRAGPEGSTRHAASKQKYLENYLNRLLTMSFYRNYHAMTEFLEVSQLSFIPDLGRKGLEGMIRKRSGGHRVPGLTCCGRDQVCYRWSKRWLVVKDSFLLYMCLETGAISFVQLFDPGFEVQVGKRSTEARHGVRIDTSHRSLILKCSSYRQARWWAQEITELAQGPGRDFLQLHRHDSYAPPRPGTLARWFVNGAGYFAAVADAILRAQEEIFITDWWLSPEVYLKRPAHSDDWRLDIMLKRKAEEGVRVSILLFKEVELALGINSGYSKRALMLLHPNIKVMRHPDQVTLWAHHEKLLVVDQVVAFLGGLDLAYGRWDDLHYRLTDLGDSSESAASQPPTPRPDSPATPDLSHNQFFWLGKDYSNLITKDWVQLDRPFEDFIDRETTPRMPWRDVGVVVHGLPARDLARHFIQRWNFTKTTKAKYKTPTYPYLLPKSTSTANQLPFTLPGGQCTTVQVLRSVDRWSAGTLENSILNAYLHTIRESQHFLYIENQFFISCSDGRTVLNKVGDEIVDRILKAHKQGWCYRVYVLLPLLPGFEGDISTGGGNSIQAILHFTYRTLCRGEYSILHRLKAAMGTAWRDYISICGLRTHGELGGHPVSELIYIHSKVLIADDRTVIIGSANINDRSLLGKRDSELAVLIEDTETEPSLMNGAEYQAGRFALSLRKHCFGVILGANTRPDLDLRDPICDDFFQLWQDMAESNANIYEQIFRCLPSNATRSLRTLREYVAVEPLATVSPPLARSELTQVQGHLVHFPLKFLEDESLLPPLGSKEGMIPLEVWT
Melanocortin receptor 4, sequence (P32245 whole entry): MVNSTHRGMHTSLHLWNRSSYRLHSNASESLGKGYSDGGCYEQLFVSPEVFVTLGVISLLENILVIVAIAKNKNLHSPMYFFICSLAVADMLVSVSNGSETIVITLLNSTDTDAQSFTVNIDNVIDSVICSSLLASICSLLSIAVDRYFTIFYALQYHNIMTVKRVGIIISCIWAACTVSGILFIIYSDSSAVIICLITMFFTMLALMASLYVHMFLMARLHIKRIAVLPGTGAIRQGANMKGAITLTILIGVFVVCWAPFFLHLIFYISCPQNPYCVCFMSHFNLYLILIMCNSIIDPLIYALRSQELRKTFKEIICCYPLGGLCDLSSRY
Luciferin 4-monooxygenase, sequence (P08659 whole entry): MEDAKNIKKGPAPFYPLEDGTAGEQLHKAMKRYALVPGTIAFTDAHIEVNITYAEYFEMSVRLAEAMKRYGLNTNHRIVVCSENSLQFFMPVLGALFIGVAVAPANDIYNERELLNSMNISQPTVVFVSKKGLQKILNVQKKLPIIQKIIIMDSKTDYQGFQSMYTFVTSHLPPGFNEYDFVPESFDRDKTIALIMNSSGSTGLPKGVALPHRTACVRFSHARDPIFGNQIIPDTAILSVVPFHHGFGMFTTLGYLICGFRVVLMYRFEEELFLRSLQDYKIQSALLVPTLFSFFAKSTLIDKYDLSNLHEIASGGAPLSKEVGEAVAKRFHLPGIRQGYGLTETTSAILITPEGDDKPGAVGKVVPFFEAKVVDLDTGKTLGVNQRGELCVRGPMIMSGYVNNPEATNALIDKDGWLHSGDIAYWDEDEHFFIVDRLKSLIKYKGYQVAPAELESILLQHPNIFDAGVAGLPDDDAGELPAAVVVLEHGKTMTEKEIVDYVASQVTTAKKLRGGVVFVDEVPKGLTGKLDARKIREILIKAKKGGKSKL

Turning to `COc1cccc(C(=O)Nc2ccc(N3CCCC3)cc2)c1`, the EC50 was 9.4 µM (active) in the experiment with BJ [1]; 3.26 µM (active) in the experiment on BJ [2]; 0.856 µM (active) in experiment [3]; 1.2 µM (active) in experiment [4]; 13.8 µM (active) in the experiment on BJ [5]; 4.29 µM (active) in experiment [6]. Besides, the EC50 with BJ [7] is 86.1 µM (active).

`CCOc1ccc(C(=O)CCC(=O)NCC(=O)OCc2ccccc2)cc1OCC`: the IC50 (at Melanocortin receptor 4; in experiment [8]) was > 64.6 µM (inactive) throughout.

On to `CC(C)[C@@H](CN1CCC(n2c(=O)[nH]c3ccccc32)CC1)NC(=O)c1ccc2ccccc2c1`, for which the IC50 at Phospholipase D1 was 5.6 µM (active); at Phospholipase D2, 20 µM (active).

Take `CC1(C)Cc2c(c(N3CCOCC3)nc3sc4c(NCCN)ncnc4c23)CO1`: in experiment [9], the EC50 is 0.158 µM (active).

As to `C=C1C(=O)O[C@@H]2C[C@@H](C)[C@H]3C=CC(=O)[C@]3(O)C[C@@H]12`, the EC50 with BJ [7] is 3.09 µM (active).

Take `Cc1ccc(C(=O)N[C@@H](C)CN2CCC(n3c(=O)[nH]c4ccc(F)cc43)CC2)cc1`: the IC50 is 0.008 µM (active) on Phospholipase D1 and 0.18 µM (active) on Phospholipase D2.

By EC50 is commonly meant the concentration that produces a half-maximal response. Broadly, the IC50 is the point on the concentration scale where inhibition reaches its midpoint.
